Legend:
GSTP1 = test: Western blot to detect GSTP1 protein in LNCaP cells; assay type: cell-based, human; conditions: LNCaP cells exposed 24 hrs
Description: Western blot to detect GSTP1 protein (FIG. 1): […] The cells were harvested, washed and total cellular proteins were extracted as described previously (Wang, […], et al. […] Cancer Res 61(20): 7544-51, 2001). Fifty μg cellular extracts were separated on a SDS-PAGE, electro-transferred to nitrocellulose filters, and immunoblotted initially with antibodies against GSTP1. The same membranes were stripped and re-probed with β-actin for loading control. The result was recorded by ECL films.

Sp1 = test: Western blot to detect Sp1 in LNCaP cells; assay type: cell-based, human; conditions: 24 hrs
Description: (§1) The cells were harvested, washed and total cellular proteins were extracted as described previously (as Example 2). Fifty μg proteins were then subjected to electrophoresis in SDS-PAGE, electro-transferred to nitrocellulose filters, and immunoblotted initially with antibodies against AR, Sp1, and PSA. The same membranes were stripped and re-probed with β-actin for loading control. The result was recorded by ECL films.

PSA = test: Western blot to detect PSA in LNCaP cells; assay type: cell-based, human; conditions: 24 hrs
Description: as §1

[1] = tested on: human prostate cancer cell line LNCaP; test: MTT and SRB cell growth assay, LNCaP; assay type: cell-based; conditions: LNCaP; for IC50: Homo sapiens, MTT and SRB, read-out: IC50, growth inhibition
Description: MTT and SRB method as described in the reference (Kreis, Budman et al. 1997). Briefly, human prostate cancer cells grown exponentially were aliquoted into 96-well plates at a density of 5000 cells/200 μl per well. Twenty-four hrs after the incubation, the cells were exposed for three or seven days to serial dilutions of indicated isothiocyanate. After the incubation, 100 μl of the medium was removed from each of the wells and 50 μl solution of 3-(4,5-dimethyl-thiazol-2-yl)-2,5-diphenyltetrazolium bromide (MTT) was added, the cells were incubated for an additional 4 hrs and then 200 μl of 0.04 N HCl-isopropanol was added to each well to dissolve the black formazan precipitates. The absorbance was measured at wavelength 540 nm. For SRB method, remove the medium after 72 hrs. The cells on 96-well dishes were fixed with 10% trichloride acetic acid for 1 hr, air-dried for 24 hrs. The cells were then stained with 50 μl of SRB (sulforhodamine B) for […]. After extensive washes with 1% acetic acid for 5 times, air-dried, the purple protein-SRB complex was dissolved in 200 μl 10 mM Tris-HCl buffer (pH 10.0), and the absorbance was measured at the wavelength of 540 and 630 nm. The percent of cell survival (T/C%) were calculated based on the results of test groups to that of the control group. The semi-exponential curves of the percent of cell survival (T/C%) to the drug concentrations (FIG. 8) and IC50 were obtained by using Sigma-plot program.

transcription factor Sp1 = test: Sp1-luc luciferase activity assay in transfected LNCaP AD cells; assay type: cell-based, human; conditions: 24 hrs
Text: The Sp1-luc and mtSp1-luc contain three tandem repeats of consensus Sp1 sites driving the luciferase gene and its mutant. […] Effectene transfection reagent and luciferase assay kit were acquired from Qiagen (Valencia, Calif., USA) and Promega (Madison, Wis., USA). Reagents for protein electrophoresis were purchased from Bio-Rad company (USA). The other chemicals were purchased from Sigma (St. Louis, Mo.) otherwise as indicated. […] (Gao, M., Ossowski, L., and Ferrari, A. C. Activation of Rb and decline in androgen receptor protein precede retinoic acid-induced apoptosis in androgen-dependent LNCaP cells and their androgen-independent derivative. J Cell Physiol, 179: 336-346, 1999). The AD and AI cells were maintained in RPMI-1640 with 10% fetal bovine serum (FBS) and charcoal stripped fetal bovine serum, penicillin-streptomycin for incubation at 5% CO2 and 37° C. respectively. […] After incubation for 24 hrs at 5% CO2 and 37° C., the cells were transfected with 1 μg/dish of SP1-luciferase gene (Sp1-luc), or its mutant mtSp1-luc using Effectene (Qiagen, Valencia, Calif.) as the transfection reagent. […] The cells were collected, washed, lysed, and the lysates were used for luciferase activity assay using Promega luciferase assay system.

LNCaP AI = test: MTT growth inhibition, hormone independent LNCaP AI; assay type: cell-based; conditions: Homo sapiens, 168 h; LNCaP AI, seven days, MTT; read-out: IC50, growth inhibition
Text: (§2) The human prostate cancer cell line LNCaP AD was purchased from the American Type Culture Collection. LNCaP AI cell line was derived from LNCaP cells using a method described previously by Gao et al. (Gao, M., Ossowski, L., and Ferrari, A. C. Activation of Rb and decline in androgen receptor protein precede retinoic acid-induced apoptosis in androgen-dependent LNCaP cells and their androgen-independent derivative. J Cell Physiol, 179: 336-346, 1999). The AD and AI cells were maintained in RPMI-1640 with 10% fetal bovine serum (FBS) and charcoal stripped fetal bovine serum, penicillin-streptomycin for incubation at 5% CO2 and 37° C. respectively.
(§3) MTT: MTT and SRB method were used to determine the effects of various isothiocyanates on cell growth as described previously (Kreis, Budman et al, 1997). Briefly, human prostate cancer cell line LNCaP grown exponentially were aliquoted into 96-well plates at a density of 2500 cells/200 μl per well. Twenty-four hrs after the incubation, the cells were exposed for seven days to serial dilutions of indicated isothiocyanate or paclitaxel. […] The absorbance was measured at wavelength 540 nm. The percent of cell survival (T/C%) were calculated based on the results of test groups to that of the control group. […]

LNCaP AD = test: MTT growth inhibition, hormone dependent LNCaP AD; assay type: cell-based; conditions: Homo sapiens, 168 h; LNCaP AD, seven days, MTT; read-out: IC50, growth inhibition
Text: as §2, §3

Structure (SMILES) | expression of GSTP1 (Western blot) (GSTP1) | expression of Sp1 (Western blot) (Sp1) | expression of PSA (Western blot) (PSA) | Percent of Cell Survival (T/C %) ([1]; 0.0390 μM) | Percent of Cell Survival (T/C %) ([1]; 0.0780 μM) | Percent of Cell Survival (T/C %) ([1]; 0.1562 μM) | Percent of Cell Survival (T/C %) ([1]; 0.3125 μM) | Percent of Cell Survival (T/C %) ([1]; 0.6250 μM) | Percent of Cell Survival (T/C %) ([1]; 1.2500 μM) | Percent of Cell Survival (T/C %) ([1]; 2.5000 μM) | Percent of Cell Survival (T/C %) ([1]; 5.0000 μM) | Percent of Cell Survival (T/C %) ([1]; 10.0000 μM) | Percent of Cell Survival (T/C %) ([1]; 20.0000 μM) | IC50 [1] | luciferase activity of Sp1-luc transfected gene (transcription factor Sp1) | IC50 (LNCaP AI) | IC50 (LNCaP AD)
C=CCN=C=S [AITC, allyl isothiocyanate] | effectively induce | minimal activities | minimal activities | 98.84% | 98.92% | 98.26% | 98.55% | 97.10% | 99.49% | 83.95% | 47.60% | 41.01% | 38.69% | ~10000 nM | – | – | –
S=C=NCc1ccccc1 [BITC, benzyl isothiocyanate] | effectively induce | significantly inhibited | significantly inhibited | 94.09% | 95.64% | 97.91% | 95.82% | 71.25% | 27.95% | 14.83% | 5.07% | 0.88% | 0.94% | 800 to 1500 nM | – | – | –
O=S(=O)(O)c1ccc(N=C=S)cc1 [SPITC, 4-sulfophenylisothiocyanate] | effectively induce | no effect | no effect | 99.54% | 101.43% | 101.43% | 99.66% | 98.26% | 101.56% | 104.37% | 100.60% | 101.33% | 99.88% | – | – | – | –
CC(/C=C/C(=O)NO)=C\[C@@H](C)C(=O)c1ccc(N(C)C)cc1 [TSA, trichostatin A, reference compound] | – | – | – | – | – | – | – | – | – | – | – | – | – | – | significantly stimulated | – | –
CC(=O)O[C@H]1C(=O)[C@@]2(C)[C@H]([C@H](OC(=O)c3ccccc3)[C@]3(O)C[C@H](OC(=O)[C@H](O)[C@@H](NC(=O)c4ccccc4)c4ccccc4)C(C)=C1C3(C)C)[C@]1(OC(C)=O)CO[C@@H]1C[C@@H]2O [paclitaxel, reference compound] | – | – | – | – | – | – | – | – | – | – | – | – | – | – | – | 0.6 nM | 0.01 nM

— patent US8410170B2, “Use of isothiocyanates compounds in treating prostatic diseases and skin cancer” (Wuxi JC Pharmaceutical Technology Co., Ltd., priority 2005, dated 2013)
